# Experimental data from US5968526A, “T cell epitopes of the major allergens from Dermatophagoides (house dust mite)” (Immulogic Pharamaceutical Corporation, priority 1995, dated 1999).
# Tested on: T cell lines primed in vitro to Der p II
# Test: secondary proliferation of Der p II-primed T cell lines (Examples VIII, X, XI)
# Format: cell-based, human
# Conditions: DP II-3 vs DP II-3.1
# Procedure: Experiments similar to those of Example V were performed to determine the T cell-reactive areas of the Der p II protein. For example, PBMC from house dust mite-allergic patient 348 were isolated as described in Example V and were stimulated in vitro with 20 μg/ml purified native Der p II.
# The above procedure was followed with a number of patients except in individual cases, T cell lines were primed with recombinant Der p II at 20 μg/ml or at 3 μg/ml and x-irradiated (3500 Rads) autologous PBMC were used as antigen-presenting cells. The data was analyzed as described in Example V, except the ranked sum of peptide responses was analyzed assigning a value of 3, 2 or 1 to the three highest S.I. responses.
# A study similar to that described in Example VII was carried out to determine the T cell cross-reactivity of the Der p II and Der f II proteins. T cells primed with the Der f II protein were challenged with various Der f II peptides and a set of substantially matching Der p II peptides.
# Another experiment following the procedure described in Example VIII analyzed the response of 29 patients primed in vitro to the Der p II protein and challenged with selected peptides derived from the Der p II sequence.
row,Substance,"difference in mean S.I. or percentage of positive responses, original vs additional (native sequence) peptides"
1,"DP II-3.1: Der p II peptide, native sequence (HGSEPCIIHRGKPFQLEAVFEANQNTKTA)",no significant difference

# Same assay, conditions: Der p II T-cell map and analogs
row,Substance,T-cell reactivity (DPII-22 series development)
1,"DP II-3.1: Der p II peptide, native sequence (HGSEPCIIHRGKPFQLEAVFEANQNTKTA)",high T-cell reactivity
2,DP II-5: Der p II peptide (KIEIKASIDGLEVDVPGIDPNACHYMK),high T-cell reactivity

# Same assay, conditions: Der p II primed; 26 positive experiments; FIG. 12
row,Substance,T cell response to Der f II peptides
1,DF II-18: Der f II peptide (DAKYTWNVPKIAPKSENVVVTVKLVG),respond significantly

# Same assay, conditions: overlapping Der p II peptides; 26 positive experiments; FIG. 9
row,Substance,T cell reactivity
1,DP II-2: Der p II peptide (HEIKKVLVPGCHGSEPCIIHRGKPF),significant T cell reactivity
2,DP II-3: Der p II peptide with a low number of conservative changes from the native sequence (HGSEPCIIHRGKPFQLEAVFEAVQNTKTA),significant T cell reactivity

# Same assay, conditions: patient 348; native Der p II primed; data not shown
row,Substance,T cell response
1,DP II-2: Der p II peptide (HEIKKVLVPGCHGSEPCIIHRGKPF),responds well

# Tested on: T cell lines primed in vitro to Der p I
# Test: secondary proliferation of Der p I-primed T cell lines (Examples V, VII, XI)
# Format: cell-based, human
# Conditions: 33 positive experiments; FIG. 13
# Procedure: 10^7 PBMC from individual 543 were cultured in 10 ml RPMI-1640 containing 5% pooled human AB serum and supplemented with glutamine, penicillin, streptomycin and HEPES buffer in the presence of 20 μg/ml purified native Der p I/ml at 37° C. for 7 days. Viable cells were then purified by Ficoll-Hypaque centrifugation and cultured for 2 additional weeks in RPMI-1640/5% AB serum containing 5 units recombinant human IL-2/ml and 5 units recombinant human IL-4/ml. The resting T cells were then tested in a secondary proliferation assay to assess T cell responses to various house dust mite proteins and peptides. For assay, 2×10^4 resting T cells were cultured in 200 μl of RPMI-1640/5% AB serum for 3 days at 37° C. in the presence of 2×10^4 autologous Epstein-Barr virus transformed B cells (20,000 Rads) as antigen presenting cells with various concentrations of purified native Der p I or synthetic Der p I peptides. Each well then received 1 μCi tritiated thymidine for 16 hours. The counts incorporated were collected onto glass fiber filters and processed for liquid scintillation counting. Medium alone, acting as negative control, contained no allergen or peptide. The results of this experiment indicate that this particular patient responds with an S.I. of at least 2.0 to several peptides derived from the Der p I protein, including DP I-1, DP I-2, DP I-4, DP I-11, DP I-5, DP I-13, DP I-15, DP I-6.1, DP I-8, DP I-9, DP I-16, DP I-10 and DP I-17 (data not shown).
# The above procedure was followed with a number of other house dust mite allergic individuals except a) in individual cases, the length of time of cultivation with IL-2 and IL-4 varied; b) in individual cases, the T cells were primed with either purified native (N) or recombinant (R) Der p I protein at either 20 μg/ml or 10 μg/ml; and c) in individual cases, x-irradiated (3500 Rads) autologous PBMC were used as antigen presenting cells in the secondary proliferation assay.
# Individual results were considered positive and used if the individual responded to the Der p I protein and at least one peptide derived from Der p I at an S.I. of 2.0 or greater. The resting T cell lines primed with recombinant or native Der p I-stimulated PBMC were tested for reactivity to synthetic Der p I peptides. The maximum response for each peptide in a titration of the antigen is expressed as the T cell stimulation index (S.I.). The S.I. is the counts-per-minute (CPM) incorporated by cells in response to the peptide divided by the CPM incorporated by cells in medium only. […] However, only individual S.I. values greater than or equal to 2.0 (a response two-fold or greater over background), referred to herein as "positive" results, were used in calculating mean T cell stimulation indices for each peptide for the patient or group of patients tested. […] The T cell stimulation index is calculated by: [formula]
# The bar represents the cumulative rank of the peptide response in the group of patients. To determine the cumulative rank, the 5 peptides with the highest S.I. in each individual were determined and assigned a numerical rank in descending order, with 5 representing the strongest response. The ranks for each peptide were then summed in the group of patients to determine the cumulative rank for the peptide. […] Given the percent positive and the mean T cell stimulation index, the positivity index (P.I.) for each peptide can be calculated.
# The Der p I and Der f I proteins are very homologous (81% identity). Thus, experiments, similar to those of Example V, were carried out to determine the T cell responses of Der p I primed T cell lines when challenged with various Der p I peptides and substantially matching […].
# The results of T cell studies using selected peptides derived from the Der p I, the Der f I, the Der p II and the Der f II proteins are shown in FIGS. 13-18a-d. […]
row,Substance,T cell response to selected Der p I peptides
1,DP I-22.1: Der p I peptide (AFSGVAATESAYLAHRNQSLDLAEQELVD),respond significantly
2,DP I-23.2: Der p I peptide (DTIPRGIEYIQHNGVVQESYYRYVAREQS),respond significantly
3,DP I-25.2: Der p I peptide (QIYPPNANKIREALAQTHSAIA),respond significantly
4,DP I-28.1: Der p I peptide (NIVGYSNAQGVDYWIVRNSWDTNWGDNGY),respond significantly

# Same assay, conditions: Der p I primed; 14 positive experiments; FIG. 7
row,Substance,T cell response to Der f I peptides
1,"DF I-1: Der f I peptide, amino acid residues 1-20 (TSACRINSVNVPSELDLRSLR)",respond significantly
2,DF I-3: Der f I peptide (TVTPIRMQGGCGSCWAFSGVAATESAYLA),respond significantly
3,DF I-4: Der f I peptide (VAATESAYLAYRNTSLDLSEQ),respond significantly
4,DF I-6: Der f I peptide (YPPDVKQIREALFQTHTAIAVIIG),respond significantly
5,DF I-11: Der f I peptide (YRNTSLDLSEQELVDCASQHGC),respond significantly
6,DF I-12: Der f I peptide (ELVDCASQHGCHGDTIPRGIE),respond significantly
7,DF I-15: Der f I peptide (HYGISNYCQIYPPDVKQIREAL),respond significantly

# Same assay, conditions: Der p I primed; 30 positive experiments; FIG. 15a
row,Substance,T cell response to selected Der f I peptides
1,DF I-21.1: Der f I peptide (TSACRINSVNVPSELDLRSLRTVTPIRMQ),respond significantly
2,DF I-21.2: Der f I peptide (RINSVNVPSELDLRSLRTVTPIRMQ),respond significantly
3,DF I-23.1: Der f I peptide (EYIQQNGVVEERSYPYVAREQRCRRPNSQ),respond significantly
4,DF I-23.2: Der f I peptide (DTIPRGIEYIQQNGVVEERSYPYVAREQR),respond significantly
5,DF I-25.1: Der f I peptide (QIYPPDVKQIREALTQTHTAIAVIIGIKD),respond significantly
6,DF I-26.1: Der f I peptide (IIGIKDLRAFQHYDGRTIIQHDNGYQ),respond significantly
7,DF I-27.1: Der f I peptide (HDNGYQPNYHAVNIVGYGSTQGDDY),respond significantly

# Same assay, conditions: mean S.I. × percent responders; 33 patients
row,Substance,positivity index (P.I.)
1,DP I-23.2: Der p I peptide (DTIPRGIEYIQHNGVVQESYYRYVAREQS),at least 150
2,DP I-25.2: Der p I peptide (QIYPPNANKIREALAQTHSAIA),at least 150

# Same assay, conditions: overlapping Der p I peptides; 33 positive experiments
row,Substance,T cell reactivity
1,DP I-5: Der p I peptide (GDTIPRGIEYIQHNGVVQESYYRYVARE),significant regions of T cell reactivity

# Tested on: T cell lines primed in vitro to Der f I
# Test: secondary proliferation of Der f I-primed T cell lines (Examples VI, VII, XI)
# Format: cell-based, human
# Conditions: 9 patients; FIG. 16a / 16b
# Procedure: Experiments similar to those of Example V were performed to determine. the T cell-reactive areas of the Der f I protein. For example, PBMC from house dust mite-allergic patient 783 were isolated as described in Example V and were stimulated in vitro-- with recombinant purified Der f I at 20 μg/ml. The results of the proliferation assay with Der f I peptides using x-irradiated (3500 Rads) autologous PBMC as antigen presenting cells indicate that T cells from this patient respond to the peptides DF I-8.1, DF I-9, DF I-6, DF I-10, DF I-2.1, DF I-3, DF I-11, DF I-5, DF I-1, and DF I-17 (data not shown).
# The above procedure was followed in a number of patients except in individual cases, T cell lines were primed with affinity purified Der f I at 20 μg/ml or at 10 μg/ml and x-irradiated (25,000 Rads) autologous Epstein-Barr virus transformed B cells were used as antigen presenting cells. […]
# Similarly, the procedure described in Example VI was followed with T cell lines from 9 patients primed in vitro to the Der f I protein then analyzed for response to selected peptides derived from the protein. The data was analyzed as described in Example VI. […]
row,Substance,"stimulation index, rank in group"
1,DF I-22.1: Der f I peptide (AFSGVAATESAYLAYRNTSLDLSEQELVD),highest stimulation indexes
2,DF I-25.1: Der f I peptide (QIYPPDVKQIREALTQTHTAIAVIIGIKD),highest stimulation indexes

# Same assay, conditions: Der f I primed; 8 positive experiments; FIG. 8
row,Substance,T cell response to Der p I peptides
1,DP I-5: Der p I peptide (GDTIPRGIEYIQHNGVVQESYYRYVARE),respond significantly

# Same assay, conditions: overlapping Der f I peptides; 16 positive experiments; FIG. 6
row,Substance,T cell reactivity
1,"DF I-1: Der f I peptide, amino acid residues 1-20 (TSACRINSVNVPSELDLRSLR)",significant areas of T cell reactivity
2,DF I-3: Der f I peptide (TVTPIRMQGGCGSCWAFSGVAATESAYLA),significant areas of T cell reactivity
3,DF I-4: Der f I peptide (VAATESAYLAYRNTSLDLSEQ),significant areas of T cell reactivity
4,DF I-5: Der f I peptide (GDTIPRGIEYIQQNGVVEERSYPYVARE),significant areas of T cell reactivity
5,DF I-6: Der f I peptide (YPPDVKQIREALFQTHTAIAVIIG),significant areas of T cell reactivity
6,DF I-7: Der f I peptide (TQTHTAIAVIIGIKDLRAFQHYDGRT),significant areas of T cell reactivity
7,DF I-8.1: Der f I peptide (IKDLRAFQHYDGRTIIQHDNGYQPNY),significant areas of T cell reactivity
8,DF I-11: Der f I peptide (YRNTSLDLSEQELVDCASQHGC),significant areas of T cell reactivity
9,DF I-14: Der f I peptide (QRCRRPNSQHYGISNYCQI),significant areas of T cell reactivity

# Same assay, conditions: patient 783; recombinant Der f I primed; data not shown
row,Substance,T cell response
1,"DF I-1: Der f I peptide, amino acid residues 1-20 (TSACRINSVNVPSELDLRSLR)",respond
2,DF I-2.1: Der f I peptide (ELDLRSLRTVTPIRMQGGCGSCWAFSG),respond
3,DF I-3: Der f I peptide (TVTPIRMQGGCGSCWAFSGVAATESAYLA),respond
4,DF I-5: Der f I peptide (GDTIPRGIEYIQQNGVVEERSYPYVARE),respond
5,DF I-6: Der f I peptide (YPPDVKQIREALFQTHTAIAVIIG),respond
6,DF I-8.1: Der f I peptide (IKDLRAFQHYDGRTIIQHDNGYQPNY),respond
7,DF I-10: Der f I peptide (QGDDYWIVRNSWDTTWGDSGYGYF),respond
8,DF I-11: Der f I peptide (YRNTSLDLSEQELVDCASQHGC),respond
9,DF I-17: Der f I peptide (GDSGYGYFQAGNNLMMIEQYPYVVIM),respond
